Marks after values point to notes of the source that are not given here.
Legend:
Format in all cases: in vivo
Phakopsora pachyrhizi = test: Test A: Asian soybean rust control on soybean seedlings; details: soybean seedlings sprayed the day before inoculation, 100 = 100% disease control, 0 = none
Text: (§1) General protocol for preparing test suspensions for Tests A-C: the test compounds were first dissolved in acetone in an amount equal to 3% of the final volume and then suspended at the desired concentration (in ppm) in acetone and purified water (50/50 mix by volume) containing 250 ppm of the surfactant PEG400 (polyhydric alcohol esters). The resulting test suspensions were then used in Tests A-C.
The test solution was sprayed to the point of run-off on soybean seedlings. The following day the seedlings were inoculated with a spore suspension of Phakopsora pachyrhizi (the causal agent of Asian soybean rust) and incubated in a saturated atmosphere at 22° C. for 24 h, and then moved to a growth chamber at 22° C. for 8 days, after which time visual disease ratings were made.
(§2) A rating of 100 indicates 100% disease control and a rating of 0 indicates no disease control (relative to the controls). A dash (-) indicates the compound was not tested.

[1] = tested on: Puccinia recondita f. sp. tritici; test: Test C: wheat leaf rust control on wheat seedlings; details: wheat seedlings sprayed the day before inoculation, 100 = 100% disease control, 0 = none
Text: as §1
The test solution was sprayed to the point of run-off on wheat seedlings. The following day the seedlings were inoculated with a spore suspension of Puccinia recondita f. sp. tritici (the causal agent of wheat leaf rust) and incubated in a saturated atmosphere at 20° C. for 24 h, and then moved to a growth chamber at 20° C. for 7 days, after which time disease ratings were made.
as §2

Zymoseptoria tritici = test: Test B: wheat leaf blotch control on wheat seedlings; details: 250 ppm test suspension (asterisk); wheat seedlings sprayed the day before inoculation; 100 = 100% disease control, 0 = none
Text: as §1
The test solution was sprayed to the point of run-off on wheat seedlings. The following day the seedlings were inoculated with a spore suspension of Zymoseptoria tritici (the causal agent of wheat leaf blotch) and incubated in a saturated atmosphere at 24° C. for 48 h, and then moved to a growth chamber at 20° C. for 17 days, after which time disease ratings were made.
as §2

[2] = 250 ppm test suspension (asterisk)

SMILES | Test A disease control rating (Phakopsora pachyrhizi; 10 ppm test suspension) | Test C disease control rating ([1]; 10 ppm test suspension) | Test A disease control rating (Phakopsora pachyrhizi; 50 ppm test suspension) | Test C disease control rating ([1]; 50 ppm test suspension) | Test B disease control rating (Zymoseptoria tritici) | Test C disease control rating [1, 2]
CS(=O)(=NCc1ccc(-c2noc(C(F)(F)F)n2)cc1)c1ccccc1 (single isomer, unassigned) [Compound 8] | 100% | 68% |  |  |  | 
CS(=O)(=NCc1ccc(-c2noc(C(F)(F)F)n2)cc1)c1ccccc1 (single isomer, unassigned) [Compound 23] |  |  | 100% | 85% |  | 
CS(C)(=O)=Nc1ccc(-c2noc(C(F)(F)F)n2)cc1 [Compound 1] | 73% | 0% |  |  |  | 
CS(=O)(Cc1ccccc1)=NCc1ccc(-c2noc(C(F)(F)F)n2)cc1 (stereo not shown) [Compound 2, N-[methyloxido(phenylmethyl)-λ^4-sulfanylidene]-4-[5-(trifluoromethyl)-1,2,4-oxadiazol-3-yl]benzenemethanamine] |  |  | 100% | 100% | 93* % | 
CS(=O)(=NCc1ccc(-c2noc(C(F)(F)F)n2)cc1)c1ccc(Cl)cc1 (stereo not shown) [Compound 3] | 94% | 0% |  |  |  | 
CS(=O)(=NCc1ccc(-c2noc(C(F)(F)F)n2)cc1)c1ccccn1 (stereo not shown) [Compound 4] | 98% | 74% |  |  |  | 
CS(=O)(=Nc1ccc(-c2noc(C(F)(F)F)n2)cc1)c1ccccn1 (stereo not shown) [Compound 6] | 99% | 74% |  |  |  | 
CS(=O)(=NCc1ccc(-c2noc(C(F)(F)F)n2)cc1)c1ccc(Br)cc1 (stereo not shown) [Compound 9] | 92% | 0% |  |  |  | 
CS(=O)(=NCc1ccc(-c2noc(C(F)(F)F)n2)cc1)c1ccc(C#N)cc1 (stereo not shown) [Compound 10] | 100% | 55% |  |  |  | 
CS(=O)(=NCc1ccc(-c2noc(C(F)(F)F)n2)cc1)c1ccc(C(F)(F)F)cc1 (stereo not shown) [Compound 11] | 99% | 0% |  |  |  | 
O=S(=NCc1ccc(-c2noc(C(F)(F)F)n2)cc1)(c1ccccc1)C1CC1 (stereo not shown) [Compound 12] | 97% |  |  |  | 53* % | 99* %
CS(=O)(=Nc1ccc(-c2noc(C(F)(F)F)n2)cc1)c1cccs1 (stereo not shown) [Compound 13] | 100% | 45% |  |  | 91* % | 
O=S1(=NCc2ccc(-c3noc(C(F)(F)F)n3)cc2)CCOCC1 [Compound 14] | 99% | 91% |  |  |  | 
O=S(CCl)(=NCc1ccc(-c2noc(C(F)(F)F)n2)cc1)c1ccccc1 (stereo not shown) [Compound 15] | 97% |  |  |  | 28* % | 99* %
O=S1(=Nc2ccc(-c3noc(C(F)(F)F)n3)cc2)CCCC1 [Compound 16] | 77% | 0% |  |  | 89* % | 
COC(=O)CCS(=O)(=NCc1ccc(-c2noc(C(F)(F)F)n2)cc1)c1ccccc1 (stereo not shown) [Compound 18] | 84% | 0% |  |  |  | 

SMILES | Test A disease control rating (Phakopsora pachyrhizi; 10 ppm test suspension) | Test C disease control rating ([1]; 10 ppm test suspension) | Test A disease control rating (Phakopsora pachyrhizi; 50 ppm test suspension) | Test C disease control rating ([1]; 50 ppm test suspension) | Test B disease control rating (Zymoseptoria tritici) | Test C disease control rating [1, 2]
O=S(CCC(F)(F)F)(=NCc1ccc(-c2noc(C(F)(F)F)n2)cc1)c1ccccc1 (stereo not shown) [Compound 19] | 85% | 0% |  |  |  | 
CS(=O)(=Nc1ccc(-c2noc(C(F)(F)F)n2)cc1)c1ccncc1 (stereo not shown) [Compound 20] | 98% | 89% |  |  |  | 
CS(=O)(=NCc1ccc(-c2noc(C(F)(F)F)n2)cc1)c1ccccc1 (stereo not shown) [Compound 21] |  |  | 100% |  | 70* % | 100* %
CS(=O)(Cc1ccccc1)=Nc1ccc(-c2noc(C(F)(F)F)n2)cc1 (stereo not shown) [Compound 22] | 54% | 89% |  |  |  | 
CS(=O)(=Nc1ccc(-c2noc(C(F)(F)F)n2)cc1)c1ccsc1 (stereo not shown) [Compound 25, N-(methyloxido-3-thienyl-λ^4-sulfanylidene)-4-[5-(trifluoromethyl)-1,2,4-oxadiazol-3-yl]benzenamine] | 100% | 86% |  |  |  | 
CS(=O)(=Nc1ccc(-c2noc(C(F)(F)F)n2)cc1)c1ccc2ccccc2c1 (stereo not shown) [Compound 30] | 0% | 74% |  |  |  | 
CCCS(=O)(=NCc1ccc(-c2noc(C(F)(F)F)n2)cc1)c1ccccc1 (stereo not shown) [Compound 32] | 99% | 0% |  |  |  | 
CS(C)(=O)=NCCc1ccc(-c2noc(C(F)(F)F)n2)cc1 [Compound 33, N-(dimethyloxido-λ^4-sulfanylidene)-4-[5-(trifluoromethyl)-1,2,4-oxadiazol-3-yl]benzeneethanamine] | 99% | 68% |  |  |  | 
CCS(=O)(CC)=NCc1ccc(-c2noc(C(F)(F)F)n2)cc1 [Compound 34] | 100% | 41% |  |  |  | 
CCCS(=O)(Cc1ccccc1)=Nc1ccc(-c2noc(C(F)(F)F)n2)cc1 (stereo not shown) [Compound 35] | 0% | 0% |  |  |  | 
CCCS(=O)(Cc1ccccc1)=NCc1ccc(-c2noc(C(F)(F)F)n2)cc1 (stereo not shown) [Compound 36] | 100% | 0% |  |  |  | 
O=S1(=NCc2ccc(-c3noc(C(F)(F)F)n3)cc2)CCCCC1 [Compound 43] |  |  | 100% | 99% |  | 
COc1ccc(S(C)(=O)=NCc2ccc(-c3noc(C(F)(F)F)n3)cc2)cc1 (stereo not shown) [Compound 47] | 99% | 32% |  |  |  | 
COCCS(=O)(=NCc1ccc(-c2noc(C(F)(F)F)n2)cc1)c1ccccc1 (stereo not shown) [Compound 48, N-[(2-methoxyethyl)oxidophenyl-λ^4-sulfanylidene]-4-[5-(trifluoromethyl)-1,2,4-oxadiazol-3-yl]benzenemethanamine] | 98% | 45% |  |  |  | 
COC(=O)c1ccc(S(C)(=O)=NCc2ccc(-c3noc(C(F)(F)F)n3)cc2)cc1 (stereo not shown) [Compound 49] | 0% | 0% |  |  |  | 
CS(C)(=O)=NCc1ccc(-c2noc(C(F)(F)F)n2)cc1 [Compound 50] | 99% |  |  | 100** % |  | 

Reference: patent US20200345010A1, “FUNGICIDAL OXADIAZOLES” (FMC Corporation, priority 2019, published 2020)
